Reference: patent publication US11793818B2, “Method for treating conditions associated with hyperproliferating cells comprising combined administration of a cannabinoid receptor agonist and radiation therapy” (Theralase Technologies, Inc., priority 2018, dated 2023)

Tested on: Glioma cells
Assay: Glioma cell kill (presto blue) after d9-THC pre-treatment and PDT with 14C PDC
Format: cell-based
Conditions: 40 μM d9-THC, no PDT
Method: Glioma cells were treated with delta9-tetrahydrocannabinol (“d9-THC”) for 24 hours prior to treatment with 14C PDC and light activated. Five concentrations of d9-THC were used (0, 5, 10, 20, 40 μM). As a significant effect was only observed with a d9-THC concentration of 40 μM, only the results obtained at this concentration are shown (see FIG. 1). After 24 hours, cells were treated with 14C PDC for 4 hours, PDT was performed using green light (20 J/cm^2) and plates were incubated overnight for presto blue on the following day. The PDT dose used was decreased to induce 10-15% cell kill in order to highlight any additive/synergistic effect of the combination that might otherwise be masked if a higher dose had been used.
Absolute cell kill values are shown with error bars representing standard deviations between wells. The hypothetical additive effect represents the hypothetical cell kill percentage had the combined effect merely been additive. Reading from left to right in FIG. 1: the first bar is the control; the second bar is d9-THC only; the third bar is light activated 14C PDC only; the fourth bar is hypothetical cell kill percentage of d9-THC combined with 14C PDC light activated; and the fifth bar is PDT (light activated 14C PDC) combined with the tested cannabinoid. PDT alone (light activated 14C PDC) induced 10% cell kill. 40 μM of d9-THC induced 10% cell kill.

CCCCCc1cc(O)c2c(c1)OC(C)(C)[C@@H]1CCC(C)=C[C@@H]21 [d9-THC, delta9-tetrahydrocannabinol]
cell kill, d9-THC only: 10%
